Structures are written as SMILES. In brackets after ≈: the same amount, converted by molar mass. Where only a bound is given, the exact number is not on record here.

Consider 42 compounds from PubChem BioAssay AID1996.

The conditions of the data set: buffer; pH 7.4; 200.0 µM.
With `CSc1ccccc1NC(=O)c1ccccc1C`, the solubility (kinetic) is 30.9 µg/mL (≈ 120 µM).
The compound `O=C(COC(=O)c1ccc([N+](=O)[O-])s1)c1ccc[nH]1` yielded a solubility (kinetic) of 22.5 µg/mL (≈ 80.3 µM).
The same measure for `CC(C)OP(=O)(OC(C)C)C(C)NC(=O)Cc1ccccc1` (configuration not stated): 44.4 µg/mL (≈ 136 µM); for `CCn1c(=O)c(C(=O)NC(C)c2ccccc2)c(O)c2ccccc21` (configuration not stated): less than 0.4 µg/mL; for `Cc1ccccc1OCC(=O)Nc1ccc2c(c1)n(C)c(=O)n2C`: 46.2 µg/mL (≈ 142 µM).
Turning to `Cc1ncc([N+](=O)[O-])n1CCOc1nonc1N`, the kinetic solubility is more than 38.1 µg/mL.
The figure for `CC1CN(S(=O)(=O)c2ccc(C(=O)Nc3ccccc3F)cc2)CC(C)O1` (configuration not stated) is more than 58.9 µg/mL; for `COc1ccc(Cc2nc3ccccc3[nH]2)cc1OC` it is more than 40.2 µg/mL; for `COc1ccc(/C=C/C(=O)OCC(=O)NC(=O)NC(C)(C)C)cc1` it is less than 0.4 µg/mL.
The figure for `O=c1c(NCCc2ccccc2)c(-c2ccccc2)c1=O` is less than 0.6 µg/mL; for `CCC1CCCCN1C(=O)COC(=O)COc1ccc(Br)cc1` (configuration not stated) it is more than 57.6 µg/mL.
The same measure for `COc1cc(OC)cc(C(=O)NCCNC(=O)c2ccccn2)c1`: more than 49.4 µg/mL; for `Cc1cc(C)cc(NC(=O)c2cccnc2)c1`: more than 33.9 µg/mL.
On to `Cc1nccn1CC(=O)N/N=C/c1ccccc1O`, for which the kinetic solubility was more than 38.7 µg/mL.
Regarding `c1ccc(CCNc2nc(-c3ccccn3)nc3ccccc23)cc1`, the kinetic solubility is 31.4 µg/mL (≈ 96.2 µM).
The same measure for `CS(=O)(=O)Nc1ccc(Oc2ncccn2)cc1`: more than 39.8 µg/mL; for `O=C1NC(=O)C(Sc2ccccc2[N+](=O)[O-])C(=O)N1`: more than 42.2 µg/mL; for `COc1cc(C(=O)N2CCc3ccccc32)cc(OC)c1OC`: 40.8 µg/mL (≈ 130 µM).
The same measure for `CCOc1ccc(C(=O)COC(=O)CNC(=O)C2CCCCC2)cc1`: 9.5 µg/mL (≈ 27.3 µM); for `Cc1ccc(C(=O)O/N=C(\c2ccccc2)c2ccncc2)cc1`: 0.6 µg/mL (≈ 1.9 µM).
The figure for `O=c1[nH]c2ccc(Cl)cc2c(-c2ccccc2)c1[N+](=O)[O-]` is less than 0.3 µg/mL.
`COC(=O)c1cccc(NC(=O)Nc2ccc(Cl)cc2)c1`: the solubility (kinetic) was less than 0.3 µg/mL.
The same measure for `C=CCNC(=S)Nc1cc(C)ccn1`: more than 31.1 µg/mL.
The figure for `O=S(=O)(c1cccc(-c2nnco2)c1)N1CCOCC1` is more than 44.3 µg/mL; for `CCOC(=O)c1csc(COc2ccc(OC)cc2)n1` it is 11.3 µg/mL (≈ 38.5 µM); for `S=C(c1ccccc1)N1CCCC1` it is more than 28.7 µg/mL.
The figure for `O=C(O)CNC(=S)N(Cc1ccc(F)cc1)C1CCCCC1` is more than 48.7 µg/mL; for `Cc1cc(C)cc(OCC(=O)N2CCc3ccccc3C2)c1` it is 31.5 µg/mL (≈ 107 µM).
`Cc1ccc(NC(=O)CCc2ccccc2)cc1S(=O)(=O)N1CCOCC1` yielded a solubility (kinetic) of 56.7 µg/mL (≈ 146 µM).
Compound `Cc1ccc(CN2C(=O)CSC(C)C2=O)cc1` (configuration not stated) had a solubility (kinetic) of more than 37.4 µg/mL.
For the compound `O=C(Nc1ccc(F)cc1F)c1ccc2ncsc2c1`, the solubility (kinetic) was 27.4 µg/mL (≈ 94.4 µM).
The figure for `COc1ccc(Cl)cc1C(=O)NN=C1CCCC1` is more than 40 µg/mL; for `COc1ccc(OC)c(NC(=O)CCOc2cccc(C)c2)c1` it is 23 µg/mL (≈ 72.9 µM).
The figure for `Cc1ccc(S(=O)(=O)n2c(C)nc3ccccc32)cc1` is 2.2 µg/mL (≈ 7.68 µM); for `O=C(COC(=O)c1cnccn1)NCc1ccc(Cl)cc1` it is more than 45.9 µg/mL; for `CC(C)[C@H](NC(=O)c1ccccc1Cl)C(=O)OCC(=O)NC(=O)NCc1ccco1` it is 40.1 µg/mL (≈ 92 µM).
The figure for `CC(=O)c1c2c3c(cccc3n(C)c1=O)C(=O)c1ccccc1-2` is less than 0.6 µg/mL; for `O=C(CN1CCN(S(=O)(=O)c2ccc(Cl)cc2)CC1)N1CCCC1` it is 48.7 µg/mL (≈ 131 µM); for `COC(=O)CN1CCN(C(=O)c2ccco2)CC1` it is more than 37.8 µg/mL.
In turn, `COCC(=O)Nc1ccc(S(=O)(=O)NCC2CCCO2)cc1` (configuration not stated) yielded a kinetic solubility of more than 49.3 µg/mL.
The same measure for `CC(C)N(Cc1nc(COc2ccccc2)no1)Cc1nccn1C`: 48.2 µg/mL (≈ 141 µM); for `COc1ccc(CN=C(N)N=C(N)N)cc1Cl.Cl`: more than 43.8 µg/mL.

The kinetic solubility is solubility judged after dilution from a stock solution rather than from solid.
